Results published in patent US9012431B2, “Boron-containing small molecules as anti-inflammatory agents” (Anacor Pharmaceuticals, Inc., priority 2008, dated 2015).
Structures can show the parent of a compound that is named as a salt.

What was measured:
[1] = test system: IL-2; assay: Cytokine assay, IL-2 release from PBMC; assay type: cell-based; settings: human PBMC, 20 ug/mL PHA, supernatant at 24 hours
Procedure, shortened: (§1)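 Using previously frozen human PBMC resuspended in medium of RPMI 1640 supplemented with 10% FBS, test article at 10, 1, 0.1 and 0.01 μM was evaluated in triplicate; DMSO stock was 10 mM.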

[2] = test system: T1, PDE4 partially purified from human U-937 myeloid leukemia cells; assay: PDE4 Assay (enzyme from U-937 cells, [3H]cAMP); assay type: biochemical; settings: PDE4 from U-937 cells, Tris buffer pH 7.5, 20 minutes at 25° C.
T1 construct: PDE4 partially purified from human U-937 myeloid leukemia cells was used

[3] = test system: IL-5; assay: Cytokine assay, IL-5 release from PBMC; assay type: cell-based; settings: human PBMC, 20 ug/mL PHA, supernatant at 48 hours
Procedure, shortened: as §1

[4] = test system: CD-1 (Crl.) derived male mice; assay: Phorbol Ester Induced Mouse Ear Edema Model; assay type: in vivo; settings: topical, 6 h; for inhibition in vivo at 3 mg: 3 mg/ear × 2 topical
Experimental: 1. In Vivo Anti-Inflammation Activity in Phorbol Ester Induced Mouse Ear Edema Model
[…] Dexamethasone (1 mg/ear×2) used as the positive control was administered topically to test animals using the same application schedule. Ear swelling was then measured by a Dyer model micrometer gauge at 6 hours after PMA application as an index of inflammation. Percent inhibition was calculated according to the formula: [(Ic−It)/Ic]×100%, where Ic and It refer to increase of ear thickness (mm) in control and treated mice, respectively.

[5] = test system: IFN-γ; assay: Cytokine assay, IFN-γ release from PBMC; assay type: cell-based; settings: human PBMC, 20 ug/mL PHA, supernatant at 24 hours
Procedure, shortened: as §1

[6] = test system: TNF-α; assay: Cytokine assay, TNF-α release from PBMC; assay type: cell-based; settings: Homo sapiens, PBMC, 24 h, 1 μg/mL LPS, supernatant at 24 hours
Procedure, shortened: as §1

[7] = test system: IL-10; assay: Cytokine assay, IL-10 release from PBMC; assay type: cell-based; settings: human PBMC, 20 ug/mL PHA, supernatant at 48 hours
Procedure, shortened: as §1

[8] = 1 mg/ear × 2 topical, Acetone:Ethanol/1:1, ear swelling 6 hours after PMA
[9] = 1 mg/ear topical, Acetone:Ethanol/1:1, ear swelling 6 hours after PMA
[10] = 1 mg/ear × 2 topical, vehicle not given, ear swelling 6 hours after PMA

SMILES: N#Cc1ccc(Oc2ccc3c(c2)COB3O)cc1O [D10, 5-(4-Cyano-3-hydroxyphenoxy)-1,3-dihydro-1-hydroxy-2,1-benzoxaborole]
- IC50 [1]: 4000 to 10000 nM
- IC50 [2]: 1000 to 4000 nM
- IC50 [3]: 4000 to 10000 nM
- inhibition in vivo at 1 mg [4, 8]: 60 to 90%
- IC50 [5]: 4000 to 10000 nM
- IC50 [6]: < 1000 nM
- IC50 [7]: 1000 to 4000 nM

SMILES: N#Cc1ccc(Oc2ccc3c(c2)COB3O)c(O)c1 [D14, 5-(4-Cyano-2-hydroxyphenoxy)-1,3-dihydro-1-hydroxy-2,1-benzoxaborole]
- IC50 [1]: < 1000 nM
- IC50 [2]: < 1000 nM
- IC50 [3]: < 1000 nM
- inhibition in vivo at 0.05 mg ([4]; 0.05 mg/ear × 2 topical, 95% Ethanol, ear swelling 6 hours after PMA): < 30%
- inhibition in vivo at 0.17 mg ([4]; 0.17 mg/ear × 2 topical, 95% Ethanol, ear swelling 6 hours after PMA): < 30%
- inhibition in vivo at 0.51 mg ([4]; 0.51 mg/ear × 2 topical, 95% Ethanol, ear swelling 6 hours after PMA): < 30%
- inhibition in vivo at 1 mg ([4]; 1 mg/ear × 2 topical, 95% Ethanol, ear swelling 6 hours after PMA): < 30%
- inhibition in vivo at 1 mg [4, 8]: < 30%
- IC50 [5]: < 1000 nM
- IC50 [6]: < 1000 nM
- IC50 [7]: 1000 to 4000 nM

SMILES: N#Cc1ccc(Oc2ccc3c(c2)COB3O)c(CO)c1 [D24, 5-[4-Cyano-2-(hydroxymethyl)phenoxy]-1,3-dihydro-1-hydroxy-2,1-benzoxaborole]
- inhibition in vivo at 1 mg [4, 8]: 60 to 90%
- IC50 [6]: 1000 to 4000 nM

SMILES: CN1CCN(C(=O)COc2cc(C#N)ccc2Oc2ccc3c(c2)COB3O)CC1 [D29, 4-(2-(5-cyano-2-(1-hydroxy-1,3-dihydrobenzo[c][1,2]oxaborol-5-yloxy)phenoxy)acetyl)-1-methylpiperazine hydrochloride]
- IC50 [1]: < 1000 nM
- IC50 [2]: < 1000 nM
- IC50 [3]: < 1000 nM
- inhibition in vivo at 1 mg [4, 8]: < 30%
- IC50 [5]: < 1000 nM
- IC50 [6]: < 1000 nM
- IC50 [7]: > 10000 nM

SMILES: N#Cc1ccc(Oc2ccc3c(c2)COB3O)c(OCc2ccccn2)c1 [D31, 2-((5-cyano-2-(1-hydroxy-1,3-dihydrobenzo[c][1,2]oxaborol-5-yloxy)phenoxy)methyl)pyridine hydrochloride]
- inhibition in vivo at 1 mg [4, 8]: 30 to 60%
- IC50 [6]: 1000 to 4000 nM

SMILES: N#Cc1ccc(Oc2ccc3c(c2)COB3O)c(CN2CCOCC2)c1 [D32, 4-(5-cyano-2-1-hydroxy-1,3-dihydrobenzo[c][1,2]oxaborol-5-yloxy)benzyl)morpholine hydrochloride]
- IC50 [1]: < 1000 nM
- IC50 [2]: < 1000 nM
- IC50 [3]: < 1000 nM
- inhibition in vivo at 1 mg [4, 9]: < 30%
- inhibition in vivo at 1 mg [4, 8]: < 30%
- IC50 [5]: < 1000 nM
- IC50 [6]: < 1000 nM
- IC50 [7]: < 1000 nM

SMILES: CN1CCN(Cc2cc(C#N)ccc2Oc2ccc3c(c2)COB3O)CC1 [D33, 1-(5-cyano-2-(1-hydroxy-1,3-dihydrobenzo[c][1,2]oxaborol-5-yloxy)benzyl)-4-methylpiperazine-1,4-diium]
- IC50 [1]: < 1000 nM
- IC50 [2]: < 1000 nM
- IC50 [3]: < 1000 nM
- inhibition in vivo at 1 mg [4, 9]: < 30%
- IC50 [5]: < 1000 nM
- IC50 [6]: < 1000 nM
- IC50 [7]: < 1000 nM

SMILES: CN(C)Cc1cc(C#N)ccc1Oc1ccc2c(c1)COB2O [D34, 1-(5-cyano-2-(1-hydroxy-1,3-dihydrobenzo[c][1,2]oxaborol-5-yloxy)phenyl)-N,N-dimethylmethanaminium]
- IC50 [1]: < 1000 nM
- IC50 [2]: 1000 to 4000 nM
- IC50 [3]: 1000 to 4000 nM
- inhibition in vivo at 1 mg [4, 9]: < 30%
- IC50 [5]: < 1000 nM
- IC50 [6]: 1000 to 4000 nM
- IC50 [7]: 1000 to 4000 nM

SMILES: COC(=O)c1ccc(Oc2ccc3c(c2)COB3O)c(F)c1 [D50, 5-(2-Fluoro-4-methoxycarbonylphenoxy)-1-hydroxy-2,1-benzoxaborole]
- IC50 [1]: < 1000 nM
- IC50 [2]: < 1000 nM
- IC50 [3]: 1000 to 4000 nM
- inhibition in vivo at 1 mg [4, 8]: 60 to 90%
- IC50 [5]: < 1000 nM
- IC50 [6]: < 1000 nM
- IC50 [7]: 4000 to 10000 nM

SMILES: CCNC(=O)c1ccc(Oc2ccc3c(c2)COB3O)nc1 [D63, N-Ethyl-6-(1-hydroxy-1,3-dihydrobenzo[c][1,2]oxaborol-5-yloxy) nicotinamide]
- IC50 [1]: < 1000 nM
- IC50 [2]: < 1000 nM
- IC50 [3]: 1000 to 4000 nM
- inhibition in vivo at 1 mg [4, 8]: < 30%
- IC50 [5]: 1000 to 4000 nM
- IC50 [6]: < 1000 nM
- IC50 [7]: 1000 to 4000 nM

SMILES: COC(=O)c1ccc(Oc2ccc3c(c2)COB3O)nc1 [D65, Methyl 6-(1-hydroxy-1,3-dihydrobenzo[c][1,2]oxaborol-5-yloxy)nicotinate]
- IC50 [1]: < 1000 nM
- IC50 [2]: < 1000 nM
- IC50 [3]: < 1000 nM
- inhibition in vivo at 1 mg [4, 8]: 30 to 60%
- IC50 [5]: < 1000 nM
- IC50 [6]: < 1000 nM
- IC50 [7]: < 1000 nM

SMILES: O=Cc1ccc(Oc2ccc3c(c2)COB3O)nc1 [D69, 6-(1-Hydroxy-1,3-dihydrobenzo[c][1,2]oxaborol-5-yloxy)nicotinaldehyde]
- IC50 [1]: 1000 to 4000 nM
- IC50 [2]: < 1000 nM
- inhibition in vivo at 1 mg [4, 10]: 30 to 60%
- IC50 [5]: 1000 to 4000 nM
- IC50 [6]: 1000 to 4000 nM

SMILES: CCCOC(=O)c1ccc(Oc2ccc3c(c2)COB3O)cc1 [D73, 4-(1-Hydroxy-1,3-dihydro-benzo[c][1,2]oxaborol-5-yloxy)-benzoic acid propyl ester]
- IC50 [1]: 1000 to 4000 nM
- IC50 [2]: < 1000 nM
- IC50 [3]: 1000 to 4000 nM
- inhibition in vivo at 1 mg [4, 10]: 30 to 60%
- inhibition in vivo at 3 mg ([4]; vehicle not given, ear swelling 6 hours after PMA): 60 to 90%
- IC50 [5]: 4000 to 10000 nM
- IC50 [6]: 1000 to 4000 nM
- IC50 [7]: > 10000 nM

SMILES: COCCOc1nc(Oc2ccc3c(c2)COB3O)ccc1C#N [D86]
- IC50 [1]: < 1000 nM
- IC50 [2]: < 1000 nM
- IC50 [3]: < 1000 nM
- inhibition in vivo at 0.063 mg ([4]; 0.063 mg/ear × 2 topical, 95% Ethanol, ear swelling 6 hours after PMA): < 30%
- inhibition in vivo at 0.21 mg ([4]; 0.21 mg/ear × 2 topical, 95% Ethanol, ear swelling 6 hours after PMA): < 30%
- inhibition in vivo at 0.63 mg ([4]; 0.63 mg/ear × 2 topical, 95% Ethanol, ear swelling 6 hours after PMA): < 30%
- inhibition in vivo at 3 mg ([4]; 95% Ethanol, ear swelling 6 hours after PMA): < 30%
- IC50 [5]: < 1000 nM
- IC50 [6]: < 1000 nM
- IC50 [7]: < 1000 nM

SMILES: CCOc1cc(Oc2ccc3c(c2)COB3O)ncc1C#N [D120, 4-Ethoxy-6-(1-hydroxy-1,3-dihydro-benzo[c][1,2]oxaborol-5-yloxy)-nicotinonitrile]
- IC50 [1]: < 1000 nM
- IC50 [2]: < 1000 nM
- IC50 [3]: < 1000 nM
- IC50 [5]: < 1000 nM
- IC50 [6]: < 1000 nM
- IC50 [7]: < 1000 nM

SMILES: N#Cc1cnc(Oc2ccc3c(c2)COB3O)c(O)c1 [D123, 5-Hydroxy-6-(1-hydroxy-1,3-dihydro-benzo[c][1,2]oxaborol-5-yloxy)-nicotinonitrile]
- IC50 [1]: < 1000 nM
- IC50 [2]: < 1000 nM
- IC50 [3]: 1000 to 4000 nM
- IC50 [5]: < 1000 nM
- IC50 [6]: < 1000 nM
- IC50 [7]: 1000 to 4000 nM

SMILES: N#Cc1ccc(Oc2ccc3c(c2)COB3O)nc1OCC(F)(F)F [D125, 6-(1-Hydroxy-1,3-dihydro-benzo[c][1,2]oxaborol-5-yloxy)-2-(2,2,2-trifluoro-ethoxy)-nicotinonitrile]
- IC50 [1]: < 1000 nM
- IC50 [2]: < 1000 nM
- IC50 [3]: < 1000 nM
- IC50 [5]: < 1000 nM
- IC50 [6]: < 1000 nM
- IC50 [7]: < 1000 nM

SMILES: CC(=O)OCCOc1nc(Oc2ccc3c(c2)COB3O)ccc1C#N [D126, 2-[3-cyano-6-(1-hydroxy-1,3-dihydro-benzo[c][1,2]oxaborol-5-yloxy)-pyridin-2-yloxy]-ethyl acetate]
- IC50 [1]: < 1000 nM
- IC50 [2]: < 1000 nM
- IC50 [3]: < 1000 nM
- IC50 [5]: < 1000 nM
- IC50 [6]: < 1000 nM
- IC50 [7]: < 1000 nM

SMILES: N#Cc1ccc(Oc2ccc3c(c2)COB3O)nc1OCC(F)F [D127, 2-(2,2-Difluoro-ethoxy)-6-(1-hydroxy-1,3-dihydro-benzo[c][1,2]oxaborol-5-yloxy)-nicotinonitrile]
- IC50 [1]: < 1000 nM
- IC50 [2]: < 1000 nM
- IC50 [3]: < 1000 nM
- IC50 [5]: < 1000 nM
- IC50 [6]: < 1000 nM
- IC50 [7]: < 1000 nM

SMILES: CC(C)Oc1nc(Oc2ccc3c(c2)COB3O)ccc1C#N [D128, 6-(1-Hydroxy-1,3-dihydro-benzo[c][1,2]oxaborol-5-yloxy)-2-isopropoxy-nicotinonitrile]
- IC50 [1]: < 1000 nM
- IC50 [2]: < 1000 nM
- IC50 [3]: < 1000 nM
- IC50 [5]: < 1000 nM
- IC50 [6]: < 1000 nM
- IC50 [7]: < 1000 nM

SMILES: N#Cc1ccc(Oc2ccc3c(c2)COB3O)nc1N [D130, 2-amino-6-(1-hydroxy-1,3-dihydro-benzo[c][1,2]oxaborol-5-yloxy)-nicotinonitrile]
- IC50 [1]: < 1000 nM
- IC50 [2]: < 1000 nM
- IC50 [3]: < 1000 nM
- IC50 [5]: < 1000 nM
- IC50 [6]: < 1000 nM
- IC50 [7]: < 1000 nM

SMILES: CCCOc1nc(Oc2ccc3c(c2)COB3O)ccc1C#N [D131, 6-(1-Hydroxy-1,3-dihydro-benzo[c][1,2]oxaborol-5-yloxy)-2-propoxy-nicotinonitrile]
- IC50 [1]: < 1000 nM
- IC50 [2]: < 1000 nM
- IC50 [3]: < 1000 nM
- IC50 [5]: < 1000 nM
- IC50 [6]: < 1000 nM
- IC50 [7]: < 1000 nM
